Measured values published in the supplement of paper PMC12420376.

Experiments:
[1] = tested on: KURAMOCHI; experiment: drug sensitivity score (DSS2) on cancer cell count; higher = more sensitive; extreme values may be limits of the assay; conditions: 72 h
Procedure, shortened: (§1)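 Ovarian cancer cells were cultured either alone or directly mixed 1:1 with lung or skin fibroblasts and plated onto 384-well plates acoustically pre-spotted with 528 approved and investigational compounds at 5 concentrations for 72 h of treatment. After fixation, cells were immunostained for CK8/18 with Hoechst and imaged at 10× across 4 fields to count cancer cells. Responses were fitted with 4-parameter logistic curves, and from these fits a drug sensitivity score was derived in Breeze, with screen quality assessed by Z'.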

[2] = tested on: OVCAR8; experiment: as above; conditions: 72 h
Procedure, shortened: as §1

[3] = co-cultured fibroblast: BJHTERT
[4] = co-cultured fibroblast: none (monoculture)

## C=CC(=O)N1CCC[C@@H](n2nc(-c3ccc(Oc4ccccc4)cc3)c3c(N)ncnc32)C1 [Ibrutinib]
[1]; [3]
  drug sensitivity score: 3.1 DSS
[1]; co-cultured fibroblast: WI38
  drug sensitivity score: 3 DSS
[1]; [4]
  drug sensitivity score: 0 DSS
[2]; [3]
  drug sensitivity score: 1.1 DSS
[2]; co-cultured fibroblast: WI38
  drug sensitivity score: 0 DSS
[2]; [4]
  drug sensitivity score: 0 DSS

## C#Cc1cccc(Nc2ncnc3cc4c(cc23)OCCOCCOCCO4)c1 [Icotinib]
[1]; [3]
  drug sensitivity score: 0 DSS
[1]; co-cultured fibroblast: WI38
  drug sensitivity score: 0.2 DSS
[1]; [4]
  drug sensitivity score: 9.7 DSS
[2]; [3]
  drug sensitivity score: 0.1 DSS
[2]; co-cultured fibroblast: WI38
  drug sensitivity score: 0 DSS
[2]; [4]
  drug sensitivity score: 0 DSS

## CC(=O)[C@]1(O)Cc2c(O)c3c(c(O)c2[C@@H](O[C@H]2C[C@H](N)[C@H](O)[C@H](C)O2)C1)C(=O)c1ccccc1C3=O [Idarubicin]
[1]; [3]
  drug sensitivity score: 14.5 DSS
[1]; co-cultured fibroblast: WI38
  drug sensitivity score: 14.4 DSS
[1]; [4]
  drug sensitivity score: 27.8 DSS
[2]; [3]
  drug sensitivity score: 17.6 DSS
[2]; co-cultured fibroblast: WI38
  drug sensitivity score: 19.3 DSS
[2]; [4]
  drug sensitivity score: 22.1 DSS

## COc1cc(C(=O)O)ccc1NC(=O)[C@@H]1N[C@@H](CC(C)(C)C)[C@](C#N)(c2ccc(Cl)cc2F)[C@H]1c1cccc(Cl)c1F [Idasanutlin]
[1]; [3]
  drug sensitivity score: 0 DSS
[1]; co-cultured fibroblast: WI38
  drug sensitivity score: 1.1 DSS
[1]; [4]
  drug sensitivity score: 0 DSS
[2]; [3]
  drug sensitivity score: 1.3 DSS
[2]; co-cultured fibroblast: WI38
  drug sensitivity score: 4.2 DSS
[2]; [4]
  drug sensitivity score: 0 DSS

## CC[C@H](Nc1ncnc2[nH]cnc12)c1nc2cccc(F)c2c(=O)n1-c1ccccc1 [Idelalisib]
[1]; [3]
  drug sensitivity score: 10.9 DSS
[1]; co-cultured fibroblast: WI38
  drug sensitivity score: 5.5 DSS
[1]; [4]
  drug sensitivity score: 3.9 DSS
[2]; [3]
  drug sensitivity score: 2.9 DSS
[2]; co-cultured fibroblast: WI38
  drug sensitivity score: 0 DSS
[2]; [4]
  drug sensitivity score: 0.3 DSS

## CC(C)Cn1cnc2c(N)nc3ccccc3c21 [Imiquimod]
[1]; [3]
  drug sensitivity score: 0 DSS
[1]; co-cultured fibroblast: WI38
  drug sensitivity score: 0.1 DSS
[1]; [4]
  drug sensitivity score: 13.4 DSS
[2]; [3]
  drug sensitivity score: 0.4 DSS
[2]; co-cultured fibroblast: WI38
  drug sensitivity score: 0 DSS
[2]; [4]
  drug sensitivity score: 2.8 DSS

## O=C(Nc1ccncc1)C(=O)c1cn(Cc2ccc(Cl)cc2)c2ccccc12 [Indibulin]
[1]; [3]
  drug sensitivity score: 13.1 DSS
[1]; co-cultured fibroblast: WI38
  drug sensitivity score: 17.2 DSS
[1]; [4]
  drug sensitivity score: 19.5 DSS
[2]; [3]
  drug sensitivity score: 11 DSS
[2]; co-cultured fibroblast: WI38
  drug sensitivity score: 26.6 DSS
[2]; [4]
  drug sensitivity score: 21.2 DSS

## CCN1CCN(c2ccc(Nc3cc(N(C)C(=O)Nc4c(Cl)c(OC)cc(OC)c4Cl)ncn3)cc2)CC1 [Infigratinib]
[1]; [3]
  drug sensitivity score: 0 DSS
[1]; co-cultured fibroblast: WI38
  drug sensitivity score: 0 DSS
[1]; [4]
  drug sensitivity score: 0 DSS
[2]; [3]
  drug sensitivity score: 0 DSS
[2]; co-cultured fibroblast: WI38
  drug sensitivity score: 0 DSS
[2]; [4]
  drug sensitivity score: 0 DSS

## CC(C)NC[C@@H](C(=O)N1CCN(c2ncnc3c2[C@H](C)C[C@H]3O)CC1)c1ccc(Cl)cc1 [Ipatasertib]
[1]; [3]
  drug sensitivity score: 1.5 DSS
[1]; co-cultured fibroblast: WI38
  drug sensitivity score: 0.5 DSS
[1]; [4]
  drug sensitivity score: 0 DSS
[2]; [3]
  drug sensitivity score: 1.9 DSS
[2]; co-cultured fibroblast: WI38
  drug sensitivity score: 0 DSS
[2]; [4]
  drug sensitivity score: 1.9 DSS

## CCC(C)n1ncn(-c2ccc(N3CCN(c4ccc(OCC5COC(Cn6cncn6)(c6ccc(Cl)cc6Cl)O5)cc4)CC3)cc2)c1=O (stereo unspecified) [Itraconazole]
[1]; [3]
  drug sensitivity score: 0 DSS
[1]; co-cultured fibroblast: WI38
  drug sensitivity score: 0 DSS
[1]; [4]
  drug sensitivity score: 0 DSS
[2]; [3]
  drug sensitivity score: 1 DSS
[2]; co-cultured fibroblast: WI38
  drug sensitivity score: 11.5 DSS
[2]; [4]
  drug sensitivity score: 0.1 DSS

## N#Cc1ccnc(N2C(=O)CC[C@H]2C(=O)N(c2cncc(F)c2)[C@H](C(=O)NC2CC(F)(F)C2)c2ccccc2Cl)c1 [Ivosidenib]
[1]; [3]
  drug sensitivity score: 0 DSS
[1]; co-cultured fibroblast: WI38
  drug sensitivity score: 0 DSS
[1]; [4]
  drug sensitivity score: 0 DSS
[2]; [3]
  drug sensitivity score: 2.1 DSS
[2]; co-cultured fibroblast: WI38
  drug sensitivity score: 0.3 DSS
[2]; [4]
  drug sensitivity score: 0.2 DSS

## C/C(=C\c1csc(C)n1)[C@@H]1C[C@@H]2O[C@]2(C)CCC[C@H](C)[C@H](O)[C@@H](C)C(=O)C(C)(C)[C@@H](O)CC(=O)N1 [Ixabepilone]
[1]; [3]
  drug sensitivity score: 4.9 DSS
[1]; co-cultured fibroblast: WI38
  drug sensitivity score: 4.6 DSS
[1]; [4]
  drug sensitivity score: 0.8 DSS
[2]; [3]
  drug sensitivity score: 5.8 DSS
[2]; co-cultured fibroblast: WI38
  drug sensitivity score: 5.6 DSS
[2]; [4]
  drug sensitivity score: 3.6 DSS

## CC(C)C[C@H](NC(=O)CNC(=O)c1cc(Cl)ccc1Cl)B(O)O [Ixazomib]
[1]; [3]
  drug sensitivity score: 1 DSS
[1]; co-cultured fibroblast: WI38
  drug sensitivity score: 11.6 DSS
[1]; [4]
  drug sensitivity score: 7.6 DSS
[2]; [3]
  drug sensitivity score: 1.8 DSS
[2]; co-cultured fibroblast: WI38
  drug sensitivity score: 8.7 DSS
[2]; [4]
  drug sensitivity score: 11.3 DSS

## CC(C)NC(=O)COc1cccc(-c2nc(Nc3ccc4[nH]ncc4c3)c3ccccc3n2)c1 [KD025]
[1]; [3]
  drug sensitivity score: 1.2 DSS
[1]; co-cultured fibroblast: WI38
  drug sensitivity score: 1.3 DSS
[1]; [4]
  drug sensitivity score: 0 DSS
[2]; [3]
  drug sensitivity score: 5 DSS
[2]; co-cultured fibroblast: WI38
  drug sensitivity score: 8.3 DSS
[2]; [4]
  drug sensitivity score: 0.3 DSS

## CS(=O)(=O)CCNCc1ccc(-c2ccc3ncnc(Nc4ccc(OCc5cccc(F)c5)c(Cl)c4)c3c2)o1 [Lapatinib]
[1]; [3]
  drug sensitivity score: 9.2 DSS
[1]; co-cultured fibroblast: WI38
  drug sensitivity score: 6.8 DSS
[1]; [4]
  drug sensitivity score: 0 DSS
[2]; [3]
  drug sensitivity score: 0.7 DSS
[2]; co-cultured fibroblast: WI38
  drug sensitivity score: 0 DSS
[2]; [4]
  drug sensitivity score: 0 DSS

## O=C(Nc1cnn2ccc(N3CCC[C@@H]3c3cc(F)ccc3F)nc12)N1CC[C@H](O)C1 [Larotrectinib]
[1]; [3]
  drug sensitivity score: 0 DSS
[1]; co-cultured fibroblast: WI38
  drug sensitivity score: 0 DSS
[1]; [4]
  drug sensitivity score: 0 DSS
[2]; [3]
  drug sensitivity score: 0.2 DSS
[2]; co-cultured fibroblast: WI38
  drug sensitivity score: 1.6 DSS
[2]; [4]
  drug sensitivity score: 0 DSS

## Oc1ccc2c(c1)CC[C@H](c1ccccc1)[C@@H]2c1ccc(OCCN2CCCC2)cc1 [Lasofoxifene]
[1]; [3]
  drug sensitivity score: 0 DSS
[1]; co-cultured fibroblast: WI38
  drug sensitivity score: 0 DSS
[1]; [4]
  drug sensitivity score: 0 DSS
[2]; [3]
  drug sensitivity score: 0 DSS
[2]; co-cultured fibroblast: WI38
  drug sensitivity score: 5.5 DSS
[2]; [4]
  drug sensitivity score: 0 DSS

## Nc1cccc2c1CN(C1CCC(=O)NC1=O)C2=O (stereo unspecified) [Lenalidomide]
[1]; [3]
  drug sensitivity score: 0.1 DSS
[1]; co-cultured fibroblast: WI38
  drug sensitivity score: 2.6 DSS
[1]; [4]
  drug sensitivity score: 10.7 DSS
[2]; [3]
  drug sensitivity score: 0 DSS
[2]; co-cultured fibroblast: WI38
  drug sensitivity score: 0 DSS
[2]; [4]
  drug sensitivity score: 1.8 DSS

## COc1cc2nccc(Oc3ccc(NC(=O)NC4CC4)c(Cl)c3)c2cc1C(N)=O [Lenvatinib]
[1]; [3]
  drug sensitivity score: 0.2 DSS
[1]; co-cultured fibroblast: WI38
  drug sensitivity score: 0 DSS
[1]; [4]
  drug sensitivity score: 0 DSS
[2]; [3]
  drug sensitivity score: 0 DSS
[2]; co-cultured fibroblast: WI38
  drug sensitivity score: 0 DSS
[2]; [4]
  drug sensitivity score: 0.7 DSS

## N#Cc1ccc(C(c2ccc(C#N)cc2)n2cncn2)cc1 [Letrozole]
[1]; [3]
  drug sensitivity score: 0 DSS
[1]; co-cultured fibroblast: WI38
  drug sensitivity score: 0 DSS
[1]; [4]
  drug sensitivity score: 0 DSS
[2]; [3]
  drug sensitivity score: 0 DSS
[2]; co-cultured fibroblast: WI38
  drug sensitivity score: 0 DSS
[2]; [4]
  drug sensitivity score: 0 DSS

## Cc1ccc(F)c(NC(=O)Nc2ccc(-c3cccc4[nH]nc(N)c34)cc2)c1 [Linifanib]
[1]; [3]
  drug sensitivity score: 0 DSS
[1]; co-cultured fibroblast: WI38
  drug sensitivity score: 0 DSS
[1]; [4]
  drug sensitivity score: 0 DSS
[2]; [3]
  drug sensitivity score: 0 DSS
[2]; co-cultured fibroblast: WI38
  drug sensitivity score: 0 DSS
[2]; [4]
  drug sensitivity score: 0.5 DSS

## C[C@]1(O)C[C@@H](c2nc(-c3ccc4ccc(-c5ccccc5)nc4c3)c3c(N)nccn32)C1 [Linsitinib]
[1]; [3]
  drug sensitivity score: 0 DSS
[1]; co-cultured fibroblast: WI38
  drug sensitivity score: 0 DSS
[1]; [4]
  drug sensitivity score: 0 DSS
[2]; [3]
  drug sensitivity score: 0 DSS
[2]; co-cultured fibroblast: WI38
  drug sensitivity score: 0 DSS
[2]; [4]
  drug sensitivity score: 1.7 DSS

## CCNCCS(=O)(=O)NC[C@@]1(c2ccccc2)SC(NC(=O)C(C)(C)C)=NN1C(=O)C(C)(C)C [Litronesib]
[1]; [3]
  drug sensitivity score: 19.2 DSS
[1]; co-cultured fibroblast: WI38
  drug sensitivity score: 22.8 DSS
[1]; [4]
  drug sensitivity score: 12.2 DSS
[2]; [3]
  drug sensitivity score: 27.8 DSS
[2]; co-cultured fibroblast: WI38
  drug sensitivity score: 28.8 DSS
[2]; [4]
  drug sensitivity score: 27 DSS

## Nc1nc(OCc2cc(Br)cs2)c2[nH]cnc2n1 [Lomeguatrib]
[1]; [3]
  drug sensitivity score: 0 DSS
[1]; co-cultured fibroblast: WI38
  drug sensitivity score: 0 DSS
[1]; [4]
  drug sensitivity score: 0 DSS
[2]; [3]
  drug sensitivity score: 0 DSS
[2]; co-cultured fibroblast: WI38
  drug sensitivity score: 0.8 DSS
[2]; [4]
  drug sensitivity score: 0 DSS

## NC(=O)N1CCC(CC(=O)N2CCC([C@H]3c4ncc(Br)cc4CCc4cc(Cl)cc(Br)c43)CC2)CC1 [Lonafarnib]
[1]; [3]
  drug sensitivity score: 13 DSS
[1]; co-cultured fibroblast: WI38
  drug sensitivity score: 13.9 DSS
[1]; [4]
  drug sensitivity score: 13.2 DSS
[2]; [3]
  drug sensitivity score: 14.5 DSS
[2]; co-cultured fibroblast: WI38
  drug sensitivity score: 4.9 DSS
[2]; [4]
  drug sensitivity score: 10.3 DSS

## Cc1c(F)cc(C(=O)NC2CC2)cc1-c1ccc(C(=O)NCC(C)(C)C)cn1 [Losmapimod]
[1]; [3]
  drug sensitivity score: 2.4 DSS
[1]; co-cultured fibroblast: WI38
  drug sensitivity score: 0 DSS
[1]; [4]
  drug sensitivity score: 0 DSS
[2]; [3]
  drug sensitivity score: 0.7 DSS
[2]; co-cultured fibroblast: WI38
  drug sensitivity score: 0 DSS
[2]; [4]
  drug sensitivity score: 1.5 DSS
